Experimental data as given in ChEMBL document CHEMBL1201862, “PubChem BioAssay data set” (2004).
Where “and” joins values, the source holds several entries; their conditions need not be identical. Equal entries are not always repeated. One block for each compound: values may come before it. Calls of active or inactive are those of the source.

What was measured:
[1] = target: Trypsin (Sus scrofa, UniProt P00761); assay: porcine trypsin inhibitors, dose response, selectivity assay for Rce1 protease inhibitor project, biochemical, quenched peptide fluorescence, cherry-pick (AID 488789)
[2] = target: T1, CAAX prenyl protease 2 (Saccharomyces cerevisiae S288c, UniProt Q03530); assay type: biochemical
T1 sequence (Q03530 whole entry): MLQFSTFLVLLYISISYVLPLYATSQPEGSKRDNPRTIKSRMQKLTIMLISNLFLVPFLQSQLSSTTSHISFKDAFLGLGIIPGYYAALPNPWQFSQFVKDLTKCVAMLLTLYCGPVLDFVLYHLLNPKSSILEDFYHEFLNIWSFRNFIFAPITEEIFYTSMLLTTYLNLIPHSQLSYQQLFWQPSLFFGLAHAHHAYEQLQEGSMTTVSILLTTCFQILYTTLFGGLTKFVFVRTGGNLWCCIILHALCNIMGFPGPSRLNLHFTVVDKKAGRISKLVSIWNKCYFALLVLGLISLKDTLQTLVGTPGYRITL

[3] = target: CAAX prenyl protease 1 (Saccharomyces cerevisiae S288c, UniProt P47154); assay: Ste24 protease inhibitors, dose response, biochemical, S. cerevisiae, plate reader, cherry-pick (AID 488815)
[4] = target: T2, Mannose-6-phosphate isomerase (Homo sapiens, UniProt P34949); assay: Confirmation of compounds inhibiting phosphomannose isomerase (PMI) via a fluorescence intensity assay using a high concentration of mannose 6-phosphate. [Related pubchem assays (depositor defined):AID1209, AID1220, AID1545, AID1553, AID1620]
T2 sequence (P34949 whole entry): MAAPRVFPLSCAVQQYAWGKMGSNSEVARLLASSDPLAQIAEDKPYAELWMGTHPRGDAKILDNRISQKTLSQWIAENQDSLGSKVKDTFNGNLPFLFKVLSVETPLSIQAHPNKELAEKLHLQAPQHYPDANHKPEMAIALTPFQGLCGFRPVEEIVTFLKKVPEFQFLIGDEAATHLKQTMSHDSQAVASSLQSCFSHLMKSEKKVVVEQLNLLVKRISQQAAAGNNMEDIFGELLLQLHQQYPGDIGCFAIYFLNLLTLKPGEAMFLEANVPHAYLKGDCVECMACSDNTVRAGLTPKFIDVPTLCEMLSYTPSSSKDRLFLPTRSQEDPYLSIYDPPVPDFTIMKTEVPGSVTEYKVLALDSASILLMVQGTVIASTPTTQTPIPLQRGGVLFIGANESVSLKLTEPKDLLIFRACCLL

[5] = target: T2, Mannose-6-phosphate isomerase; assay: PMI enzyme inhibitors, confirmation, biochemical, fluorescence intensity (AID 1535)
[6] = target: Phosphomannomutase 2 (Homo sapiens, UniProt O15305); assay: Counter screen SAR assay for PMM2 inhibitors via a fluorescence intensity assay. [Related pubchem assays (depositor defined):AID1545, AID1574]
[7] = system: HEK293; assay: NOD1 signaling inhibitors, primary screen, cell-based, luminescence, uHTS (AID 1578); assay type: functional; conditions: Homo sapiens
[8] = system: HEK293; assay: cells; assay type: functional, cell-based; conditions: Homo sapiens
[9] = system: HEK293; assay: cells; assay type: functional, cell-based; conditions: Homo sapiens; remark: listed apart in the source
[10] = system: HEK293; assay: NOD2 signaling inhibitors in MDP-stimulated cells, cell-based, uHTS, luminescence (AID 2001); assay type: functional; conditions: Homo sapiens
[11] = target: Tumor necrosis factor (Homo sapiens, UniProt P01375); assay: TNFa-triggered NF-kB activation inhibitors, SAR follow-up, cell-based, revised (AID 2337); assay type: functional
[12] = target: Nucleotide-binding oligomerization domain-containing protein 1 (Homo sapiens, UniProt Q9Y239); assay: NOD1 signaling inhibitors, SAR follow-up, revised (AID 2333); assay type: functional
[13] = target: T3, Sentrin-specific protease 8 (Homo sapiens, UniProt Q96LD8); assay type: functional
T3 sequence (Q96LD8 whole entry): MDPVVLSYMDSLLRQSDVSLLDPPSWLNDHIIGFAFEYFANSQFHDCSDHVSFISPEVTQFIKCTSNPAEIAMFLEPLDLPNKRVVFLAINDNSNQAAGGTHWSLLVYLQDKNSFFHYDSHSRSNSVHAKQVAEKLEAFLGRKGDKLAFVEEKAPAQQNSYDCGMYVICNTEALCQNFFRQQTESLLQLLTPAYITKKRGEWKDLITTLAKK

[14] = target: T3, Sentrin-specific protease 8; assay type: functional; remark: listed apart in the source
[15] = system: HEK293; assay: cells; conditions: Homo sapiens
[16] = target: SUMO E1/E2 (Homo sapiens, UniProt P63279+Q9UBE0+Q9UBT2); assay: SAR analysis of SUMOylation using HTRF in an in-Vitro dose response assay. [Related pubchem assays (depositor defined):AID2006, AID2011, AID2018, AID2069, AID2658]; assay type: functional
[17] = target: Phospholipase D2 (Homo sapiens, UniProt O14939); assay: PLD2 inhibitor potency in cells, dose response (AID 602147); assay type: functional;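 also: cellular assay in HEK293 cells overexpressing GFP-tagged PLD2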
[18] = target: T4, Cytochrome P450 1A2 (Homo sapiens, UniProt P05177);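 also: PubChem cytochrome P450 panel assay, CYP1A2 panel member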
T4 sequence (P05177 whole entry): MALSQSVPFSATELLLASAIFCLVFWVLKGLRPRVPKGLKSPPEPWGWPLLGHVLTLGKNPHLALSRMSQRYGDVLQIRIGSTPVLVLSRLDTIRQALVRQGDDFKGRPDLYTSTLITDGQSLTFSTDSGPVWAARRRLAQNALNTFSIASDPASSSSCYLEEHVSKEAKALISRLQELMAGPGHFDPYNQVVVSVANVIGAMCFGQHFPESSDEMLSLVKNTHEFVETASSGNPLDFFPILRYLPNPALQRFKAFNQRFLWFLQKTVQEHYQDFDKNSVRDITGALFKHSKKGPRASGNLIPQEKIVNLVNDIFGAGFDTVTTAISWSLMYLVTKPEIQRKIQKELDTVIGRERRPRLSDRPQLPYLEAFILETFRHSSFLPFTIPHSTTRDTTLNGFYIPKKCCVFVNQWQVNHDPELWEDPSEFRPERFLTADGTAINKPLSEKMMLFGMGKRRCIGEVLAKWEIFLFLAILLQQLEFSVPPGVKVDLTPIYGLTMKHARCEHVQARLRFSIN

[19] = target: Cytochrome P450 2C9 (Homo sapiens, UniProt P11712)
Sequence of Cytochrome P450 2C9 (P11712 whole entry): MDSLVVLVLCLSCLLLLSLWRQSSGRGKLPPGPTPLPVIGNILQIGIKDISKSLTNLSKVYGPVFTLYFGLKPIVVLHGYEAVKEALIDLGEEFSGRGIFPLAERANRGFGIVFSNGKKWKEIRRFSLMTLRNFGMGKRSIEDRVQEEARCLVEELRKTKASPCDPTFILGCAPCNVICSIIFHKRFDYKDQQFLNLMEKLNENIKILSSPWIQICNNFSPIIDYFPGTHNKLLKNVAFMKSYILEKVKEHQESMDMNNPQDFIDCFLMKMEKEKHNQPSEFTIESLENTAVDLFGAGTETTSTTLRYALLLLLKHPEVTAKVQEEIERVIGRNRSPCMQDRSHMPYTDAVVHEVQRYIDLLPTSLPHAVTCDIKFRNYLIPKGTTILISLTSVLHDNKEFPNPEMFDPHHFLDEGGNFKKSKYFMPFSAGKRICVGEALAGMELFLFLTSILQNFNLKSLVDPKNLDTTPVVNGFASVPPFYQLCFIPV

Sequence of Nucleotide-binding oligomerization domain-containing protein 1 (Q9Y239 whole entry, the tested form may be a part): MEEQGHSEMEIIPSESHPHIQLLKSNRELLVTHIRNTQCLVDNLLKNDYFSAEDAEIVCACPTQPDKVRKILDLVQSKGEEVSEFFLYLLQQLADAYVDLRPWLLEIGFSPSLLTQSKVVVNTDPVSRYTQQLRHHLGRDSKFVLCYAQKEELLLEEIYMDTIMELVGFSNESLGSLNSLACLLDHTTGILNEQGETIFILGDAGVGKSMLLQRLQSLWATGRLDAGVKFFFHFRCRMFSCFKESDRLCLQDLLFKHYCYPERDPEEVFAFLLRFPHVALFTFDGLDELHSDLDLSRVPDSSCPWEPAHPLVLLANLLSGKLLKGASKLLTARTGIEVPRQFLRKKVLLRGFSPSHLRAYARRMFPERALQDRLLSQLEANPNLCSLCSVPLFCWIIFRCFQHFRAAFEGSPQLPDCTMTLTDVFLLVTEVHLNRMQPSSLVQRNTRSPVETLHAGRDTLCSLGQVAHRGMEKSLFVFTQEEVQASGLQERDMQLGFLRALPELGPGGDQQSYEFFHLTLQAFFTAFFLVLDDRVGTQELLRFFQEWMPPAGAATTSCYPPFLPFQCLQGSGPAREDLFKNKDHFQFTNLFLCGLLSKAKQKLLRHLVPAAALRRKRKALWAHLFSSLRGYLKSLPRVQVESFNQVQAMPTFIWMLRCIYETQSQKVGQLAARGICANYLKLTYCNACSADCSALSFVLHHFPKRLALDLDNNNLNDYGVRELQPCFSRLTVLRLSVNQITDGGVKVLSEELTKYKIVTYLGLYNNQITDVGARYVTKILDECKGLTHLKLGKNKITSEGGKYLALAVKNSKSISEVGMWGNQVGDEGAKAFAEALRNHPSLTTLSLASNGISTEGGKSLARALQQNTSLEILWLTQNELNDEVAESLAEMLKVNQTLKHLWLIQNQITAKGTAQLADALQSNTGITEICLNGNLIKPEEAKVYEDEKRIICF
Sequence of Tumor necrosis factor (P01375 whole entry, the tested form may be a part): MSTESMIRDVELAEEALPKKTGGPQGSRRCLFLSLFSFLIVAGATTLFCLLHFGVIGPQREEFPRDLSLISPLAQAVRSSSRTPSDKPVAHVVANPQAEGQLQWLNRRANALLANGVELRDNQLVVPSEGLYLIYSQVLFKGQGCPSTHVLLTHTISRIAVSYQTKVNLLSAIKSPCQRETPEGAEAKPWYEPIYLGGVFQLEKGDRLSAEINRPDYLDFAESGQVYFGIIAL
Sequence of CAAX prenyl protease 1 (P47154 whole entry): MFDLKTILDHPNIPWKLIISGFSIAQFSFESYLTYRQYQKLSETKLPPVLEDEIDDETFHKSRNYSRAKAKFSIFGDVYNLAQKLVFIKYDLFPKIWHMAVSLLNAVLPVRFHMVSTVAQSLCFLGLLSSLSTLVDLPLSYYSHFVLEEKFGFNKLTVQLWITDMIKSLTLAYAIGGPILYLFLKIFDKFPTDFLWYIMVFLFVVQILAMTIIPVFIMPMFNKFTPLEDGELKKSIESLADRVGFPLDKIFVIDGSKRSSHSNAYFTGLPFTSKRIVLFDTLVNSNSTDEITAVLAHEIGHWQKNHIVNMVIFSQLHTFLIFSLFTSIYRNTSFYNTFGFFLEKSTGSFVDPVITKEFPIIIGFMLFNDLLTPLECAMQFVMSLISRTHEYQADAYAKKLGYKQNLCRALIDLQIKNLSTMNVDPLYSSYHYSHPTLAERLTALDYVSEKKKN
Sequence of SUMO E1/E2 (Q9UBE0 whole entry): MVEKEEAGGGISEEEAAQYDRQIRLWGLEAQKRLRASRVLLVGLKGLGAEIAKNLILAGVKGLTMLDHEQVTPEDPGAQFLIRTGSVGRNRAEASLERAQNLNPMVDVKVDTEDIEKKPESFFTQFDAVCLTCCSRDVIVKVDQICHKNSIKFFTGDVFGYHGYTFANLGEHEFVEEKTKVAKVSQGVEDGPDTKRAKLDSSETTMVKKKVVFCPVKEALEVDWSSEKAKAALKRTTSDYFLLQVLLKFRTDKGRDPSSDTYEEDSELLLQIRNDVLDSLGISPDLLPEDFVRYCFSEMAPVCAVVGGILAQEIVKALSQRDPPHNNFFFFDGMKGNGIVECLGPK
Sequence of SUMO E1/E2 (Q9UBT2 whole entry): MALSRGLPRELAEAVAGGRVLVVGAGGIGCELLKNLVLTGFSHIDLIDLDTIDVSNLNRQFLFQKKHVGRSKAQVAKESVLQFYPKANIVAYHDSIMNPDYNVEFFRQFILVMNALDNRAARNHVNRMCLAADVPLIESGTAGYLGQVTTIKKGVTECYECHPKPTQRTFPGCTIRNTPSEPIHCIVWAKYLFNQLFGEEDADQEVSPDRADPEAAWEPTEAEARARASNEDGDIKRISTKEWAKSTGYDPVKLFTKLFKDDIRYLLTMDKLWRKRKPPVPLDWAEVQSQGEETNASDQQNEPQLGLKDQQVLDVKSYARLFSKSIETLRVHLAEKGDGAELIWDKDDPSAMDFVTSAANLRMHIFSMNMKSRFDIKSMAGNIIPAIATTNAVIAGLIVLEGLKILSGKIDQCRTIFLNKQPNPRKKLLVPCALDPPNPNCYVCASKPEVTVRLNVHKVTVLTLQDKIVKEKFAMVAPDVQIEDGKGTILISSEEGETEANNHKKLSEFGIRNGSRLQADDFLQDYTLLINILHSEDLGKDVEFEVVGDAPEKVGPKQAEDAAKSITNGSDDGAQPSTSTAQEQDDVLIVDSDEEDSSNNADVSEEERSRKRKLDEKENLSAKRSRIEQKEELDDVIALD
Sequence of SUMO E1/E2 (P63279 whole entry): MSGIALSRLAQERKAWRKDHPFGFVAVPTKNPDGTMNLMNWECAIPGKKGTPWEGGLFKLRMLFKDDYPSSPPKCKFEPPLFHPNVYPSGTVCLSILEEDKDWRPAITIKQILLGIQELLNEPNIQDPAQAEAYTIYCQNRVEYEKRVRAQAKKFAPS
Sequence of Phosphomannomutase 2 (O15305 whole entry): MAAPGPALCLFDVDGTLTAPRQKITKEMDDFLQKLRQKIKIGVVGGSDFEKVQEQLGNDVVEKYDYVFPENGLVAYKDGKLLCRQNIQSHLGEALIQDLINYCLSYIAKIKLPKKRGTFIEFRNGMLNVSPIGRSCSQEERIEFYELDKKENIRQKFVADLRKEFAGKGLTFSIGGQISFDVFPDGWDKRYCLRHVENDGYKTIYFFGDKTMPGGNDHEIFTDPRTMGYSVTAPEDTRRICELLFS
Sequence of Trypsin (P00761 whole entry): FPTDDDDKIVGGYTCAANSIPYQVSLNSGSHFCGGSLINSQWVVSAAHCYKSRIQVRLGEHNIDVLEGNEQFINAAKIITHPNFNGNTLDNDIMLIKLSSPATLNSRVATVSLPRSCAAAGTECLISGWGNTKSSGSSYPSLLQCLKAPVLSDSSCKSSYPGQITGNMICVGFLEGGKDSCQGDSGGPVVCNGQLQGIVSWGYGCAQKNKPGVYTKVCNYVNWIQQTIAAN
Sequence of Phospholipase D2 (O14939 whole entry): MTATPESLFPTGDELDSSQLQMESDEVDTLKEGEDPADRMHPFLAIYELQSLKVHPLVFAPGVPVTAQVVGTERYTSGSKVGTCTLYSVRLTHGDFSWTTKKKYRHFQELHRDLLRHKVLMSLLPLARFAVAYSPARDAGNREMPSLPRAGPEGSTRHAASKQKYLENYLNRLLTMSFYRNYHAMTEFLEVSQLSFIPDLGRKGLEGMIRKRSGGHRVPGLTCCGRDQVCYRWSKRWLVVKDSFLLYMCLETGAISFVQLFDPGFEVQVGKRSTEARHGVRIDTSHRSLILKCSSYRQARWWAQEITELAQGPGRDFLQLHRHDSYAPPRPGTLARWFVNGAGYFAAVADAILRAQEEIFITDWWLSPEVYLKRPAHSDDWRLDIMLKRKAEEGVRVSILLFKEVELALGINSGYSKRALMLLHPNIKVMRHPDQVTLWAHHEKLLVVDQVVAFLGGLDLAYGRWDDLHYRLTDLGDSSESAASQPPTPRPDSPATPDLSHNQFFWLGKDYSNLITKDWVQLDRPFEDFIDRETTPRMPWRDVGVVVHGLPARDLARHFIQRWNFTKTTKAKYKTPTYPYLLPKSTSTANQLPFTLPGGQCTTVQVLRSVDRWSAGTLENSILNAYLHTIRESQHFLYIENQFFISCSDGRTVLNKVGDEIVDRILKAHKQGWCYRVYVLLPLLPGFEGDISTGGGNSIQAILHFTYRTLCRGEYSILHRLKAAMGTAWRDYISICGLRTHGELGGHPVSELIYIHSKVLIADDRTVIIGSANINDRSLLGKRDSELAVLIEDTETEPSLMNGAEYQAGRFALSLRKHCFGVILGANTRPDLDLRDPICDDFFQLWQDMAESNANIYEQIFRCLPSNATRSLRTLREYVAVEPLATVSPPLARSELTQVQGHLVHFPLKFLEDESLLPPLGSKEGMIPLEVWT

Structure (SMILES): COc1ccc2c(=O)n(C3CCCC3)sc2c1
IC50 [4]: > 100 µM (inactive)
IC50 [5]: 86.8 µM (active)
IC50 [6]: > 100 µM (inactive)

Structure (SMILES): O=C(Nc1ccc(Cl)cc1)c1ccc(CN2CCc3ccccc3C2)cc1
EC50 [7]: 2.29 µM (active)
IC50 [8]: 2.11 µM (active)
IC50 [9]: > 20 µM (inactive)
IC50 [10]: 5.45 µM (inactive)
IC50 [11]: 4.66 µM (active) and 491 nM (active)
IC50 [12]: 1.19 µM (active) and 833 nM (active)
IC50 [13]: > 100 µM (inactive)
IC50 [14]: 22.1 µM (active)
IC50 [15]: > 20 µM (inactive)

Structure (SMILES): O=C(NCCN1CCC2(CC1)C(=O)NCN2c1ccc(F)c(F)c1)c1cc2cc(F)ccc2[nH]1
IC50 [17]: 0.097 µM (active)

Structure (SMILES): COc1cc(OC)c(C(=O)CCCN2CCCC2)c(OC)c1 [BUFLOMEDIL]
AC50 [18]: inactive
AC50 [19]: inactive

The next lines start with the values.

AC50 [1]: 5.7 µM (active)
AC50 [2]: > 100 µM (inactive)
AC50 [3]: 5.08 µM (active)
Structure (SMILES): CCOc1ccc(C2C(C(=O)OC)=CN(C(C)c3ccccc3)C=C2C(=O)OC)cc1 (centres undefined)

IC50 [16]: 29.2 µM (active)
Structure (SMILES): C/C(=N\OCc1nc2ccccc2c(=O)n1/N=C/c1ccccc1O)c1ccccc1
